The values below come from patent US11000516B2 (priority 2015, dated 2021).

This assay has as its system DENV2 strain #031. The assay is described as follows: Non-lethal mouse model with CELADEN strain. In kind it is in vivo, mice. As to the method:
EDEN1, EDEN2 and S221 were used as control virus strains. The MOI of each strain was indicated in supplementary FIG. 2. After 48 hours pi, virus titer in the supernatants was determined by standard plaque assay using BHK-21 cells. The percentages of virus titer were calculated based on virus infection control of each strain. Error bars indicate standard deviations from duplicate experiments. (B and C) Mice were inoculated i.v. with DENV2 strains, #031 (2×10^7 pfu), #013 (1×10^7 pfu) or #036 (2×10^7 pfu). […] Average viral copy numbers on day 1-2 were measured using mixed serum of each group. Viral copy number on day 3 was measured individually and the graphs show the average results with standard deviations. A P value less than 0.05 was considered significant (*P<0.05). […] Viral copy number on day 3-6 was measured individually and shown in the graphs as the average results with standard deviations. The VLR from day 3 to day 6 was also shown as the mean value and standard deviations. The number of mice per group is 6.
Since infection levels in HuH-7 cells are different among the strains, the MOI of each strain was varied to obtain similar levels of virus titer in the supernatant (FIG. 8).

Take `CCCC(=O)O[C@H]1CN2CC[C@H](O)[C@@H]2[C@@H](O)[C@@H]1O` [celgosivir]: the “viremia reduction on day 3 pi” value (#031, 50 mg/kg BID from time of infection) amounted to 7.8 fold. Further, the “VLR from day 3 to day 6” value (#031, 50 mg/kg BID started during peak viremia (day 3)) was found to be 2.63.
